Measurements from patent publication US20070037149A1, “Human calcium transporter 1 gene, screening method of calcium absorption regulating factor, and calcium absorption regulating factor” (priority 2003, published 2007).

Legend:
[1] = biological target: T1, human CaT1 (Homo sapiens, UniProt Q9H1D0, I526V); test: 45Ca2+ uptake by human CaT1 constant expression cells (CHO cells transfected with pMEHis-CaT1); type: cell-based; conditions: preincubated 4 hours; for amount of 45Ca2+ incorporated into the cells versus control: 3.0 mM, ANOVA, FIG. 28
T1 construct: expressed in transfected cells
T1 sequence (Q9H1D0 45-765 I526V): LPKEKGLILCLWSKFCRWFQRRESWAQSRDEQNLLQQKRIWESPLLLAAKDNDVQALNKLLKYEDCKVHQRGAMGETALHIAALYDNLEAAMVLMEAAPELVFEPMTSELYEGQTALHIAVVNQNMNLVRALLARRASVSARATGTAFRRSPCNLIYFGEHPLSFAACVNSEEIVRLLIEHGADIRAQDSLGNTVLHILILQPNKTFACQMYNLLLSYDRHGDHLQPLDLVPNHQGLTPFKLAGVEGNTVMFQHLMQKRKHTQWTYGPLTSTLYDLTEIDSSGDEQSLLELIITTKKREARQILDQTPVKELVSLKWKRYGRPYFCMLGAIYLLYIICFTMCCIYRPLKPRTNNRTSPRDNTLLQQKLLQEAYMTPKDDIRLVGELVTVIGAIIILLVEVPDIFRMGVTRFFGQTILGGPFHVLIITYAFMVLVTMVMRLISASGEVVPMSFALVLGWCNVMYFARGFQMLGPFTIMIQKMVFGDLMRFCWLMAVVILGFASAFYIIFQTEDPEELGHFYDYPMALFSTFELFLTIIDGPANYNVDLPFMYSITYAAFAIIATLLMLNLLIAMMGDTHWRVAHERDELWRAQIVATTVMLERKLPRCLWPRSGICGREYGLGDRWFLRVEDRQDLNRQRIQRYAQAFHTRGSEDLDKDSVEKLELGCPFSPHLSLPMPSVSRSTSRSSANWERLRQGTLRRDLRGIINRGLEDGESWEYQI

[2] = biological target: T1, human CaT1; test: as above; type: cell-based; conditions: for amount of 45Ca2+ incorporated, influence of metal ions: versus control, FIG. 14
Experimental: That is, 1×10^5 cells/well of human CaT1 constant expression cells were cultured on a 24-well plate using a medium obtained by adding 10% FCS (fetal calf serum) was added to the above-mentioned DMEM/F12 medium at 37° C. for 5 days in a CO2 environment. After the medium was removed and the cells were washed with PBS buffer and HBSS buffer, to each well added was HBSS buffer containing 5.28 μM of ^45 Ca^2+, which was removed after a predetermined time (usually for 10 minutes excepting the case in which cultivation time is varied (time course is to be obtained)), the cells were solubilized with 1% triton (triton X-100), and then the cells were recovered. The amount of ^45Ca^2+ incorporated into the cells was measured using a liquid scintillation counter. As a control, CHO cells transfected with no human CaT1 gene were also subjected to the same operations to measure the amount of ^45Ca^2+ incorporated in the cells.
On the other hand, the effects of the metallic ion were examined by the same culture conditions and procedures as those in (4) except that 100 μM each of chloride salts La^3+, Gd^3+, Cd^2+, Co^2+, Fe^2+, Mn^2+, and Mg^2+ (10 mM for Mg2+ only) and 100 μM of choline chloride (Cho-Cl) were added to a HBSS buffer containing 5.28 μM of ^45Ca^2+.
In other words, in regards to a cultured human CaT1 constant expression cells evaluated by the same culture conditions and procedures as those in (4), a medium was displaced by a DMEM (—Ca) medium (Dulbecco's Modified Eagle Medium (cont.) Base Catalog No. 21068, manufactured by GIBCO™ Invitrogen Corporation: KCl 400.00 mg/l, NaCl 6400.00 mg/l, NaHCO3 3700.00 mg/l, NaH2PO4.H2O 125.00 mg/l, D-glucose 4500.00 mg/l, L-isoleucine 105.00 mg/l, L-leucine 105.00 mg/l, L-lysine.HCl 146.00 mg/l, L-tyrosin/2Na.2H2O 104.00mg/l) containing, as the food factor, 7% lactose (special grade reagents) 1% casein enzymatic degradation products, 1% guar gum hydrolysate, and soybean enzymatic degradation products (manufactured by Fuji oil Co., Ltd.), respectively, and the amount of ^45Ca^2+ incorporated into the cells was measured after preincubation for additional 4 hours.
The enzyme-treated sample obtained in (1) was dissolved in DMEM (—Ca) (the same as that used in Example 1(6)) so as to make a concentration of 1.0 (w/v)%. This was added to human CaT1 constant expression cells cultivated by the same culture conditions and the same procedures as those in Example 1(4) and CHO cells transfected with no human CaT1 gene, and these cells were preincubated for 4 hours. A medium contained 2.5% dialyzed (Spectra/POR MWCO:100) FCS and 2% L-glutamine solution.
Immediately after completion of the pretreatement, the amount of ^45Ca^2+ incorporated into the cells was measured by the same technique as used in Example 1(4). On the other hand, the same procedure was followed without addition of the enzyme-treated samples as a control.

[3] = biological target: human calcium transporter 1 (human CaT1) (human) (UniProt Q9H1D0); test: cell-based or functional assay
[4] = 100 μM chloride salt in HBSS buffer with 5.28 μM 45Ca2+

## C[C@H](N)C(=O)O [Ala]
[1]
  amount of 45Ca2+ incorporated into the cells versus control: no significant increase

## [Mg+2] [Mg^2+]
[2]; 10 mM (Mg2+ only) in HBSS buffer with 5.28 μM 45Ca2+
  amount of 45Ca2+ incorporated, influence of metal ions: no significant difference

## Ile-Pro-Ala (IPA) [synthetic peptide IPA]
[1]; 0, 0.25, 0.5, 1.0 mg/ml, FIG. 27
  amounts of 45Ca2+ incorporated into the cells, influence of concentration: significantly increased depending on the concentration

## [Cl][Cd][Cl] [Cd^2+]
[2]; [4]
  amount of 45Ca2+ incorporated, influence of metal ions: inhibit

## CC[C@H](C)[C@H](N)C(=O)O [Ile]
[1]
  amount of 45Ca2+ incorporated into the cells versus control: no significant increase

## enzymatic degradation product of cheese whey (CWP-D)
[3]
  Km of Ca2+ uptake with CWP-D pretreatment (+CWP-D): 0.019 mM
  Vmax of Ca2+ uptake with CWP-D pretreatment (+CWP-D) (pmol/mg/10 min): 1.06
  amount of 45Ca2+ incorporated into human CaT1 constant expression cells (fold of control, 1.0 (w/v)% CWP-D, 4 h pretreatment): 8 times

## [La+3] [La^3+]
[2]; [4]
  amount of 45Ca2+ incorporated, influence of metal ions: inhibit

## O=C(O)[C@@H]1CCCN1 [Pro]
[1]
  amount of 45Ca2+ incorporated into the cells versus control: no significant increase

## [Co+2] [Co^2+]
[2]; [4]
  amount of 45Ca2+ incorporated, influence of metal ions: inhibit

## OC[C@H]1O[C@@H](O[C@H]2[C@H](O)[C@@H](O)C(O)O[C@@H]2CO)[C@H](O)[C@@H](O)[C@H]1O (some centres unmarked) [lactose]
[2]; 7% in DMEM (-Ca) medium, preincubation 4 hours, FIG. 15
  amount of 45Ca2+ incorporated into the cells, influence of food factor: increased

## Ile-Pro-Ala [peak 1]
[1]; 0.5 mg/ml, ANOVA p<0.05 versus other peaks and control, FIG. 25
  amount of 45Ca2+ incorporated into the cells, HPLC peaks: increased significantly

## [Mn+2] [Mn^2+]
[2]; [4]
  amount of 45Ca2+ incorporated, influence of metal ions: no significant difference

## [Gd+3] [Gd^3+]
[2]; [4]
  amount of 45Ca2+ incorporated, influence of metal ions: inhibit

## Ile-Pro-Ile [IPI]
[1]
  amount of 45Ca2+ incorporated into the cells versus control: no significant increase

## [Fe+2] [Fe^2+]
[2]; [4]
  amount of 45Ca2+ incorporated, influence of metal ions: no significant difference
